Values quoted from earlier work as cited in patent US11433083B2, “High-strength testosterone undecanoate compositions” (priority 2010, dated 2022).

## CCCCCCCCCCC(=O)O[C@H]1CC[C@H]2[C@@H]3CCC4=CC(=O)CC[C@]4(C)[C@H]3CC[C@]12C [Testosterone undecanoate, testosterone undecanoate]
  water solubility: < 0.3 ng/mL
